Test results reported in patent publication US10738028B2, “Spiro three-membered ring, spiro five-membered ring peptide deformylase inhibitor and use thereof in antibacteria and anti-tumor” (priority 2016, dated 2020).

Experiments:
Assay type in all cases: cell-based
[1] = test system: methicillin-resistant Staphylococcus aureus (MRSA); assay: MIC, two-fold agar dilution (CLSI), clinical isolates
Summary of the method: (§1)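 Following the American Clinical and Laboratory Standards Institute procedure, agar two-fold dilution served to determine minimum inhibitory concentrations.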

[2] = test system: methicillin-sensitive Staphylococcus aureus (MSSA); assay: as above
Summary of the method: as §1

[3] = test system: methicillin-sensitive Staphylococcus epidermidis (MSSE); assay: as above
Summary of the method: as §1

[4] = test system: Enterococcus faecalis (EFA); assay: as above
Summary of the method: as §1

[5] = test system: Moraxella catarrhalis (BCA); assay: as above
Summary of the method: as §1

[6] = test system: Streptococcus pneoumoniae (SPN); assay: as above
Summary of the method: as §1

[7] = test system: methicillin-resistant Staphylococcus epidermidis (MRSE); assay: as above
Summary of the method: as §1

[8] = test system: Escherichia coli (including ESBLs, non-ESBLs); assay: as above
Summary of the method: as §1

[9] = test system: Enterococcus faecium (EFM); assay: as above
Summary of the method: as §1

[10] = test system: HCT-116 colorectal cancer cell line; assay: CCK-8 proliferation inhibition; conditions: Homo sapiens, HCT-116, 72 h, concentration of 30 μM; 72 hours; CCK-8; read-out: HCT116 inhibition rate/%
Summary of the method: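 Cells were plated overnight at 2000 cells/well, then compound in culture medium was added at a range of final concentrations. After 72 hours in a CO2 incubator, medium was replaced with 1:10 CCK-8 solution for the read-out.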

In the case of `O=C(C[C@@H](CC1CCCC1)C(=O)N1CC2(CC2)C[C@H]1C(=O)Nc1nncs1)NO` [Example 74], the Anti-bacterial activity (MIC), strain MRSA 15-1 ([1]; clinical isolate MRSA 15-1) is reported as 4 µg/mL, the Anti-bacterial activity (MIC), strain MRSA 15-2 ([1]; clinical isolate MRSA 15-2) is reported as 8 µg/mL and the Anti-bacterial activity (MIC), strain MRSA 15-3 ([1]; clinical isolate MRSA 15-3) is reported as 5 µg/mL. It also gave an Anti-bacterial activity (MIC), strain MRSA 15-4 ([1]; clinical isolate MRSA 15-4) of 8 µg/mL, an Anti-bacterial activity (MIC), strain MSSA 15-3 ([2]; clinical isolate MSSA 15-3) of 4 µg/mL and an Anti-bacterial activity (MIC), strain MSSA 15-4 ([2]; clinical isolate MSSA 15-4) of 4 µg/mL. For the same molecule, the Anti-bacterial activity (MIC), strain MSSA 15-5 ([2]; clinical isolate MSSA 15-5) was 2 µg/mL, the Anti-bacterial activity (MIC), strain MSSA 15-6 ([2]; clinical isolate MSSA 15-6) was 4 µg/mL and the Anti-bacterial activity (MIC), strain MSSE 15-3 ([3]; clinical isolate MSSE 15-3) was 1 µg/mL. For the same molecule, the Anti-bacterial activity (MIC), strain MSSE 15-4 ([3]; clinical isolate MSSE 15-4) was 1 µg/mL, the Anti-bacterial activity (MIC), strain MSSE 15-5 ([3]; clinical isolate MSSE 15-5) was 1 µg/mL and the Anti-bacterial activity (MIC), strain MSSE 15-6 ([3]; clinical isolate MSSE 15-6) was 1 µg/mL. For the same molecule, the Anti-bacterial activity (MIC) ([4]; strain EFA 15-1) was > 32 µg/mL, the Anti-bacterial activity (MIC) ([4]; strain EFA 15-2) was > 32 µg/mL and the Anti-bacterial activity (MIC) ([4]; strain EFA 15-3) was 16 µg/mL. For the same molecule, the Anti-bacterial activity (MIC) ([4]; strain EFA 15-4) was > 32 µg/mL, the Anti-bacterial activity (MIC) ([4]; strain EFA 15-5) was > 32 µg/mL and the Anti-bacterial activity (MIC) ([4]; strain EFA 15-6) was > 32 µg/mL. The Anti-bacterial activity (MIC) ([4]; strain EFA 15-9) was > 32 µg/mL, the Anti-bacterial activity (MIC) ([5]; strain BCA 14-1) was > 32 µg/mL and the Anti-bacterial activity (MIC) ([5]; strain BCA 14-4) was > 32 µg/mL. For the same molecule, the Anti-bacterial activity (MIC) ([5]; strain BCA 14-5) was 16 µg/mL, the Anti-bacterial activity (MIC) ([5]; strain BCA 14-6) was > 32 µg/mL and the Anti-bacterial activity (MIC) ([5]; strain BCA 14-7) was > 32 µg/mL. The Anti-bacterial activity (MIC) ([5]; strain BCA 14-8) was > 32 µg/mL, the Anti-bacterial activity (MIC) ([5]; strain BCA 14-10) was > 32 µg/mL and the Anti-bacterial activity (MIC) ([6]; strain SPN 16-2) was 32 µg/mL. It also gave an Anti-bacterial activity (MIC) ([6]; strain SPN 16-4) of 4 µg/mL, an Anti-bacterial activity (MIC), strain MRSE 15-1 ([7]; clinical isolate MRSE 15-1) of 0.5 µg/mL and an Anti-bacterial activity (MIC), strain MRSE 15-2 ([7]; clinical isolate MRSE 15-2) of 1 µg/mL. It also gave an Anti-bacterial activity (MIC), strain MRSE 15-3 ([7]; clinical isolate MRSE 15-3) of 1 µg/mL, an Anti-bacterial activity (MIC), strain MRSE 15-7 ([7]; clinical isolate MRSE 15-7) of 4 µg/mL and an Anti-bacterial activity (MIC), strain ECO+ 15-1 ([8]; clinical isolate ECO+ 15-1) of 32 µg/mL. For the same molecule, the Anti-bacterial activity (MIC), strain ECO+ 15-2 ([8]; clinical isolate ECO+ 15-2) was > 32 µg/mL, the Anti-bacterial activity (MIC), strain ECO+ 15-3 ([8]; clinical isolate ECO+ 15-3) was > 32 µg/mL and the Anti-bacterial activity (MIC), strain ECO+ 15-4 ([8]; clinical isolate ECO+ 15-4) was > 32 µg/mL. The Anti-bacterial activity (MIC), strain ECO− 15-1 ([8]; clinical isolate ECO− 15-1) was > 32 µg/mL, the Anti-bacterial activity (MIC), strain ECO− 15-2 ([8]; clinical isolate ECO− 15-2) was > 32 µg/mL and the Anti-bacterial activity (MIC), strain ECO− 15-3 ([8]; clinical isolate ECO− 15-3) was > 32 µg/mL. The Anti-bacterial activity (MIC), strain ECO− 15-4 ([8]; clinical isolate ECO− 15-4) was > 32 µg/mL, the Anti-bacterial activity (MIC) ([9]; strain EFM 15-1) was 16 µg/mL and the Anti-bacterial activity (MIC) ([9]; strain EFM 15-2) was 32 µg/mL. It also gave an Anti-bacterial activity (MIC) ([9]; strain EFM 15-3) of 4 µg/mL, an Anti-bacterial activity (MIC) ([9]; strain EFM 15-4) of 32 µg/mL and an Anti-bacterial activity (MIC) ([9]; strain EFM 15-5) of 4 µg/mL. For the same molecule, the Anti-bacterial activity (MIC) ([9]; strain EFM 15-6) was 32 µg/mL and the inhibition at 30 µM [10] was 1%.

With `CCCC[C@H](CC(=O)NO)C(=O)N1CC2(CCCC2)C[C@H]1C(=O)Nc1cc(C)on1` [Example 80, (S)-2-((R)-2-(2-(hydroxyamino)-2-oxoethyl)hexanoyl)-N-(5-methylisoxazol-3-yl)-2-spiro[4.4]nonane-3-carboxamide] the Anti-bacterial activity (MIC) ([1]; strain MRSA 15-1) was 1 µg/mL, the Anti-bacterial activity (MIC) ([1]; strain MRSA 15-2) was 2 µg/mL and the Anti-bacterial activity (MIC) ([1]; strain MRSA 15-3) was 1 µg/mL. The Anti-bacterial activity (MIC) ([1]; strain MRSA 15-4) was 2 µg/mL, the Anti-bacterial activity (MIC) ([2]; strain MSSA 15-3) was 2 µg/mL and the Anti-bacterial activity (MIC) ([2]; strain MSSA 15-4) was 1 µg/mL. The Anti-bacterial activity (MIC) ([2]; strain MSSA 15-5) was 0.5 µg/mL, the Anti-bacterial activity (MIC) ([2]; strain MSSA 15-6) was 1 µg/mL and the Anti-bacterial activity (MIC) ([3]; strain MSSE 15-3) was 1 µg/mL. It also gave an Anti-bacterial activity (MIC) ([3]; strain MSSE 15-4) of 0.25 µg/mL, an Anti-bacterial activity (MIC) ([3]; strain MSSE 15-5) of 0.25 µg/mL and an Anti-bacterial activity (MIC) ([3]; strain MSSE 15-6) of 0.25 µg/mL. The Anti-bacterial activity (MIC) ([4]; strain EFA 15-1) was 16 µg/mL, the Anti-bacterial activity (MIC) ([4]; strain EFA 15-2) was > 16 µg/mL and the Anti-bacterial activity (MIC) ([4]; strain EFA 15-3) was 8 µg/mL. For the same molecule, the Anti-bacterial activity (MIC) ([4]; strain EFA 15-4) was > 16 µg/mL, the Anti-bacterial activity (MIC) ([4]; strain EFA 15-5) was > 16 µg/mL and the Anti-bacterial activity (MIC) ([4]; strain EFA 15-6) was > 16 µg/mL. For the same molecule, the Anti-bacterial activity (MIC) ([4]; strain EFA 15-9) was > 16 µg/mL, the Anti-bacterial activity (MIC) ([5]; strain BCA 14-1) was 8 µg/mL and the Anti-bacterial activity (MIC) ([5]; strain BCA 14-4) was 8 µg/mL. For the same molecule, the Anti-bacterial activity (MIC) ([5]; strain BCA 14-5) was 2 µg/mL, the Anti-bacterial activity (MIC) ([5]; strain BCA 14-6) was 8 µg/mL and the Anti-bacterial activity (MIC) ([5]; strain BCA 14-7) was 4 µg/mL. It also gave an Anti-bacterial activity (MIC) ([5]; strain BCA 14-8) of 8 µg/mL, an Anti-bacterial activity (MIC) ([5]; strain BCA 14-10) of 4 µg/mL and an Anti-bacterial activity (MIC) ([6]; strain SPN 16-2) of 8 µg/mL. The Anti-bacterial activity (MIC) ([6]; strain SPN 16-4) was 4 µg/mL, the Anti-bacterial activity (MIC) ([7]; strain MRSE 15-1) was 0.25 µg/mL and the Anti-bacterial activity (MIC) ([7]; strain MRSE 15-2) was 0.5 µg/mL. The Anti-bacterial activity (MIC) ([7]; strain MRSE 15-3) was 0.5 µg/mL, the Anti-bacterial activity (MIC) ([7]; strain MRSE 15-7) was 2 µg/mL and the Anti-bacterial activity (MIC) ([8]; strain ECO+ 15-1) was > 16 µg/mL. For the same molecule, the Anti-bacterial activity (MIC) ([8]; strain ECO+ 15-2) was 16 µg/mL, the Anti-bacterial activity (MIC) ([8]; strain ECO+ 15-3) was > 16 µg/mL and the Anti-bacterial activity (MIC) ([8]; strain ECO+ 15-4) was > 16 µg/mL. For the same molecule, the Anti-bacterial activity (MIC) ([8]; strain ECO− 15-1) was > 16 µg/mL, the Anti-bacterial activity (MIC) ([8]; strain ECO− 15-2) was > 16 µg/mL and the Anti-bacterial activity (MIC) ([8]; strain ECO− 15-3) was > 16 µg/mL. The Anti-bacterial activity (MIC) ([8]; strain ECO− 15-4) was > 16 µg/mL, the Anti-bacterial activity (MIC) ([9]; strain EFM 15-1) was 8 µg/mL and the Anti-bacterial activity (MIC) ([9]; strain EFM 15-2) was 4 µg/mL. The Anti-bacterial activity (MIC) ([9]; strain EFM 15-3) was 8 µg/mL, the Anti-bacterial activity (MIC) ([9]; strain EFM 15-4) was 4 µg/mL and the Anti-bacterial activity (MIC) ([9]; strain EFM 15-5) was 2 µg/mL. It also gave an Anti-bacterial activity (MIC) ([9]; strain EFM 15-6) of 8 µg/mL and an inhibition at 30 µM [10] of 11%.
